Experimental data reported in PMC9421656, “Beyond Retigabine: Design, Synthesis, and Pharmacological Characterization of a Potent and Chemically Stable Neuronal Kv7 Channel Activator with Anticonvulsant Activity” (Journal of Medicinal Chemistry, 2022).
Entries after “also recorded” stand apart in the source; their conditions may differ.

Legend:
[1] = biological target: T1, Kv7.2/Kv7.3 channels (Homo sapiens, UniProt O43525+O43526); experiment: FluxOR thallium-sensitive fluorescence-based assay in CHO cells stably expressing Kv7.2 + Kv7.3; type: cell-based; design: expressed in transfected cells; details: for Slope of the fluorescent signal at 10 μM: initial slope of FluxOR signal between 5 and 15 s, mean ± SEM; for Slope of the fluorescent signal at 10 μM / Kv7 opening activity (in words): 10 μM; for Kv7 opening activity (in words): compared with retigabine or the reference compound of the subseries
Procedure: While assay robustness in Kv7.2/Kv7.3-expressing cells was high (Z′ factor > 0.5),[27] the Z′ factor calculated in CHO cells expressing Kv7.2 subunits alone was <0.5; thus, all subsequent pharmacological screens were performed in Kv7.2/Kv7.3-expressing cells. […] The Kv7.2/Kv7.3-stable cell line was generated using a plasmid-based PiggyBac transposon system that enables genomic integration of multiple independent transposons containing distinct cDNA sequences. cDNAs for KCNQ2 and KCNQ3 genes (encoding for Kv7.2 and Kv7.3, respectively) were cloned into two different PiggyBac expression vectors (pB-CMV-MCS-EF1α-RedPuro, System Biosciences), and these two plasmids, together with a plasmid encoding for the transposase (System Biosciences), were transfected into CHO cells using Lipofectamine 2000 (Invitrogen) as indicated in the protocol provided by the seller company.
The selected clone stably expressing Kv7.2/Kv7.3 channels was grown in DMEM supplemented with 10% FBS, 50 U/mL Pen-Strep, 2 mM L-glutamine (all purchased from Gibco), and 4 μg/mL puromycin (Sigma) in a humidified atmosphere at 37 °C with 5% CO2. […] A kinetic dispense microplate reader (FLUOstar Optima) was used to read the plate, setting the excitation filter at 485 nm and the emission filter at 520 nm; “Stimulus buffer” prepared as indicated in the protocol was automatically added to wells after 5 s of recording; the plate was read every 1 s, for 50 s. The results were analyzed using Optima Data Analysis and Microsoft Excel.
Only experiments resulting in a Z′ > 0.5 were considered. Data shown (Figures 1D,E,F,G and 3B) were obtained from at least three independent experiments.
Data were analyzed using the GraphPad Prism 8.0.2 (GraphPad Software, LaJolla, CA). Statistically significant differences in the initial slope of the curves were evaluated through ordinary one-way ANOVA, and multiple comparisons were corrected with the Tukey test. […] Indicated EC50 values are the mean of at least three independent experiments ± standard error of the mean (SEM).

[2] = biological target: T1, Kv7.2/Kv7.3 channels; design: expressed in transfected cells; details: cited from earlier work
[3] = biological target: T1, Kv7.2/Kv7.3 channels; experiment: Whole-cell patch-clamp electrophysiology in CHO cells expressing Kv7.2/Kv7.3; type: cell-based; design: expressed in transfected cells; host or cells: CHO cells, transient transfection (pcDNA3.1, Lipofectamine 2000); details: for EC50: dose-response 0.01–30 μM
Procedure: Channel subunits were expressed in Chinese hamster ovary (CHO) cells by transient transfection, using plasmids containing cDNAs encoding human Kv7.2 and/or Kv7.3, all cloned in the pcDNA3.1 vector. According to the experimental protocol, these plasmids were expressed individually or in combination, together with a plasmid-expressing enhanced green fluorescent protein (Clontech, Palo Alto, CA) used as a transfection marker. Total cDNA in the transfection mixture was kept at 4 μg. CHO cells were grown in 100 mm plastic Petri dishes in Dulbecco’s modified Eagle’s medium containing 10% fetal bovine serum, nonessential amino acids (0.1 mM), penicillin (50 U/mL), and streptomycin ([…]) in a humidified atmosphere at 37 °C with 5% CO2.
Currents from CHO cells were recorded at room temperature (20–22 °C) using the whole-cell configuration of the patch-clamp technique, with glass micropipettes of 3–5 MΩ resistance. During the recording, constant perfusion of extracellular solution was maintained. […] The pipette (intracellular) solution contained (in mM): 140 KCl, 2 MgCl2, 10 EGTA, 10 HEPES, 5 Mg^2+-ATP, at pH 7.3–7.4, with KOH. […] To evaluate the activity of each compound on Kv7.2 + Kv7.3 currents, the cells were clamped at −80 mV and conductance–voltage curves (G/V curves; activation curves) were generated by normalizing to the maximal value of the instantaneous isopotential currents at 0 mV and expressing the normalized values as a function of the preceding voltages. Data were fit to a Boltzmann distribution of the following form: y = max/[1 + exp (V1/2 – V)/k], where V is the test potential, V1/2 is the half-activation potential, and k is the slope factor.
Indicated EC50 values are the mean of at least three independent experiments ± standard error of the mean (SEM).
Statistically significant differences in electrophysiological data were evaluated with the Student t test or with ANOVA followed by the Student–Newman–Keuls test when multiple groups were compared, with the threshold set at p < 0.05. […] Values are expressed as the […] mean ± standard error of the mean (SEM) of at least three cells recorded in at least three independent transfections.

[4] = tested on: PTZ-induced seizures; experiment: Pentylenetetrazol (PTZ)-induced acute seizures in mice; type: in vivo, C57Bl/6 mice; details: XE991 alone, 3 mg/kg i.p.
Procedure: A subcutaneous (s.c.) injection of 100 mg/kg PTZ in mice is able to trigger convulsive behavior whose intensity can be assessed and quantified according to the revised Lüttjohann’s scale (see Materials and Methods),[40] using a 9-point severity score ranging from 0 (whisker trembling) to 8 (wild jumping). For each animal, the maximal severity score (Figure 5A) and the time latency required to reach such values (Figure 5B) were recorded.
Food and water were available ad libitum. Animals were experimentally naive and were used only once.
Thus, each dose was dissolved to allow injection of 0.01 mL/g, i.p. The control group was represented by mice injected only with vehicle solution (saline containing 2% Tween-20 and 2% PEG-400).
PTZ was injected, and animals were placed in clear Plexiglass boxes for observation of seizure activity. The severity of convulsions (from minimal “clonic” to maximal “generalized tonic–clonic”) as well as the latency to onset of maximal seizure was recorded.
0 = whisker trembling, 1 = sudden behavioral arrest, 2 = facial jerking, 3 = neck jerks, 4 = clonic seizures (sitting), 5 = tonic clonic seizures (lying on belly), 6 = clonic seizures (lying on side), 7 = tonic clonic seizures (lying on side), 8 = wild jumping. The behavioral assessments described above were performed in a blind manner and the observers had to reach a unanimous agreement regarding the scoring of the behavior.
The number of animals needed for the experiment was determined using the power analysis software GPower version 3.1.92. The required minimum sample size was 8 mice per group. Statistical analyses were performed using GraphPad Prism (GraphPad Software, LaJolla, CA) using a one-way analysis of variance with the Tukey post-hoc test. The P value of <0.05 was accepted as indicative of a statistically significant difference.

[5] = Photostability under UV-visible light with HPLC analysis (degradation, dimer formation); type: physicochemical; details: for % Degradation (3h, UV): 10 μM, buffered aqueous solution pH 7.4, 3 h UV-visible light, ± SD; for Dimers Formation / Photodegradation (in words): 3 h UV-visible light; for Dimers Formation: HPLC at 550 nm; for Photodegradation (in words): compared with retigabine
Source text: Two different HPLC wavelengths were utilized: (a) […] to evaluate the decreased concentration of the starting molecule; (b) 550 nm to investigate the formation of phenazine/phenazinium dimers, as previously described.[10] Unfortunately, dimer formation was detected for all tested compounds, except for 23 and 24. […]. […]. The first group consisted of N4 (−X- in Table 2) substituted analogues, in which the tertiary amine is unavailable for the formation of phenazine dimers (compounds 25–28). […]. The third group included derivatives replacing hydrogen atoms with electron-withdrawing fluorine atoms at position R2 of the benzene-1,2,4-triamine core scaffold (compounds 59, 60), a strategy likely reducing the reactivity of N2 and N4. […].
Photostability experiments were performed by dissolving compounds in DMSO and then diluting in buffered aqueous solutions at pH 7.4 to a final concentration of 10 μM. 1 cm quartz cells, filled with the abovementioned solutions, were irradiated by a UV lamp (UV Consulting TQ 150 equipped with Duran 50 sleeve and 150 W power supply unit, Peschl, Germany) at a fixed distance of 20 cm from the UV source. Control samples were maintained at 37 °C, wrapped with aluminum foil to avoid light exposure, and used to assess chemical stability of the compounds. At predetermined intervals, aliquots were withdrawn and analyzed by UHPLC in order to assess the concentration decrease of the starting materials and the presence of the dimers usually formed by retigabine.
Photostability and chemical stability experiments were carried out on a Kinetex^TM C18 150 × 2.1 mm × 2.6 μm (100 Å) column (Phenomenex, Bologna, Italy). The optimal mobile phase consisted of 0.1% TFA/H2O v/v (A) and 0.1% TFA/ACN v/v (B). Analysis was performed in gradient elution as follows: 0–13.0 min, 5–65% B; 13–14.0 min, 65–95% B; 14–15.0 min, isocratic to 95% B; 15–15.01 min, 95–5% B; then 3 min for column re-equilibration. The flow rate was 0.5 mL min^–1. The column oven temperature was set to 45 °C. The injection volume was 7 μL of sample. The following PDA parameters were applied: sampling rate, 12.5 Hz; detector time constant, 0.160 s; cell temperature, 40 °C. Data acquisition was set in the range 190–800 nm, and chromatograms were monitored at 224 nm to assess the decrease in concentration of the starting material, while a wavelength of 550 nm was used to eventually detect dimerization.

[6] = In vitro metabolism assay (S9 fraction of human liver microsomes); type: in vitro ADME; details: human
Procedure: To further explore the metabolic stability of compounds 25, 26, and 60 in a biologically relevant model, they were tested in an in vitro metabolism assay (S9 fraction of human liver microsomes) using retigabine as a comparator.[33],[34] In this assay, a very small extent (4.7 ± 0.5%) of retigabine undergoes phase I metabolism, whereas a larger fraction (17.4 ± 1.2%) was metabolized in phase II reactions, as previously reported.[35]

SMILES	Slope of the fluorescent signal at 10 μM [1]	% Degradation (3h, UV) [5] [%]	Dimers Formation [5]	Kv7 opening activity (in words) [1]	further results
CCOC(=O)Nc1ccc(NCc2ccc(C(F)(F)F)cc2)c(F)c1N [RL-81]	0.0272±0.0014	–	–	–	EC50 ([1]; FluxOR dose-response, slope parameter, read-out: EC50 (initial slope of the fluorescence signal)): 4000 ± 1000 nM; Potency relative to retigabine as a Kv7 activator in vitro [2]: > 15 times; Leftward shift in V1/2 (ΔV1/2) ([3]; 1 μM): about 40 mV; Idrug/Icontrol (maximal current density) ([3]; calculated at +20 mV): 1.6 ± 0.2; EC50 ([3]; current at +20 mV, read-out: Maximal currents EC50): 270 ± 40 nM; EC50 ([3]; read-out: ΔV1/2 EC50): 240 ± 60 nM; Potency over retigabine as Kv7.2/Kv7.3 activator (fold/times) ([3]; from ΔV1/2 EC50): 10
CCOC(=O)Nc1ccc(NCc2ccc(F)cc2)c(F)c1N [SF0034]	–	–	–	–	Potency relative to retigabine in activating Kv7.2/Kv7.3 channels in vitro [2]: five times more potent than retigabine
O=C1c2ccccc2C(Cc2ccncc2)(Cc2ccncc2)c2ccccc21 [XE991, reference compound]	–	–	–	–	Effect on seizure severity score or latency [4]: did not affect; Effect on retigabine-induced increase of maximal fluorescence and initial slope ([1]; 10 μM XE991 with retigabine): abolished
CCCCCCC(=O)Nc1ccc(N(C)Cc2ccc(C(F)(F)F)cc2)cc1N [compound 25, N-(2-Amino-4-(methyl(4-(trifluoromethyl)benzyl)amino)phenyl)heptanamide]	0.0637±0.0033	63.3±2.8	did not form dimers and No	improved agonist activity; also recorded: higher than that of retigabine	Photodegradation (in words) [5]: underwent extensive photodegradation; Phase I turnover metabolism [6]: 20.6 ± 1.4%; Phase II turnover metabolism [6]: 33.2 ± 1.0%
CN(Cc1ccc(C(F)(F)F)cc1)c1ccc(NC(=O)CC(C)(C)C)c(N)c1 [compound 26, N-(2-Amino-4-(methyl(4-(trifluoromethyl)benzyl)amino)phenyl)-3,3-dimethylbutanamide]	0.0721±0.0034	99.5±0.1	did not form dimers and No	improved agonist activity; also recorded: higher than that of retigabine	Photodegradation (in words) [5]: underwent extensive photodegradation; Phase I turnover metabolism [6]: 32.1 ± 1.2%; Phase II turnover metabolism [6]: 32.7 ± 0.3%
CCCCCCC(=O)Nc1ccc(NCc2ccccc2)cc1N [compound 41, N-(2-Amino-4-(benzylamino)phenyl)heptanamide]	0.0476±0.0030	19.5±4.7	Yes	no change in activity	–
CC(C)(C)CC(=O)Nc1ccc(NCc2c(F)cccc2F)cc1N [compound 43, N-(2-Amino-4-((2,6-difluorobenzyl)amino)phenyl)-3,3-dimethylbutanamide]	0.0534±0.0028	98.4±0.2	Yes	still displayed strong activity	–
CCCCCCC(=O)Nc1ccc(NCc2ccccc2F)cc1N [compound 52, N-(2-Amino-4-((2-fluorobenzyl)amino)phenyl)heptanamide]	0.0448±0.0035	74.9± 0.1	Yes	no change in activity	–
